pEC50: −log10 of the molar value.
Test system: HCV replicon
Test: HCV replicon replication assay (NPTII ELISA)
Assay type: cell-based, Hepatitis C virus (Huh-7 cells)
Conditions: Hepatitis C virus, Huh-7, 72 h, inhibition of HCV replicon replication in Huh-7 HCV replicon-containing cells, three days incubation, NPT level by ELISA; read-out: EC50
Outline: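 Huh-7 cells carrying a Bartenschlager NPTII (neo) HCV replicon, treated 3 days at 37 °C with compound, generally 6 concentrations from 10 to 0.03 micromolar, in equal DMSO across wells. NPTII level, proportional to replication, read by capture ELISA on methanol:acetone-fixed cells; interferon alpha positive control; toxicity scored visually or by MTS.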

SMILES | pEC50
CCCCCOc1ccc(N(C(N)=O)c2nc(-c3ccc(F)cc3F)cs2)cc1C(F)(F)F [Compound 86, 1-(4-(2,4-difluorophenyl)thiazol-2-yl)-1-(4-(pentyloxy)-3-(trifluoromethyl)phenyl)urea] | > 6.00
CCCCCOc1ccc(N(C(=O)C(=O)OC)c2nc(-c3ccc(Cl)s3)cs2)cc1C(F)(F)F [Compound 99, methyl 2-((4-(5-chlorothiophen-2-yl)thiazol-2-yl)(4-(pentyloxy)-3-(trifluoromethyl)phenyl)amino)-2-oxoacetate] | > 6.00
NC(=O)N(c1ccc(OCC2CCCCC2)c(F)c1)c1nc(-c2ccc(F)cc2)cs1 [Compound 117, 1-(4-(cyclohexylmethoxy)-3-fluorophenyl)-1-(4-(4-fluorophenyl)thiazol-2-yl)urea] | 5.00 to 6.00
CCCCOc1ccc(N(C(N)=O)c2nc(-c3ccc(F)c(F)c3)cs2)cc1C(F)(F)F [Compound 138, 1-(4-butoxy-3-(trifluoromethyl)phenyl)-1-(4-(3,4-difluorophenyl)thiazol-2-yl)urea] | > 6.00
NC(=O)N(c1ccc(OCC2CCCCC2)c(F)c1)c1nc(-c2ccc3c(c2)NC(=O)CO3)cs1 [Compound 116, 1-(4-(cyclohexylmethoxy)-3-fluorophenyl)-1-(4-(3-oxo-3,4-dihydro-2H-benzo[b][1,4]oxazin-6-yl)thiazol-2-yl)urea] | < 5.00
CCCCCOc1ccc(N(C(=O)CN(C)C)c2nc(-c3cccnc3)cs2)cc1C(F)(F)F [Compound 41, 2-(dimethylamino)-N-(4-(pentyloxy)-3-(trifluoromethyl)phenyl)-N-(4-(pyridin-3-yl)thiazol-2-yl)acetamide] | > 6.00
CCCCCCCCOc1ccc(N(C(=O)NC(C)(C)C)c2nc(-c3cccnc3)cs2)cc1 [Compound 74, 3-tert-butyl-1-(4-(octyloxy)phenyl)-1-(4-(pyridin-3-yl)thiazol-2-yl)urea] | 5.00 to 6.00
CCCCCOc1ccc(N(C(C)=O)c2nc(CNC(C)=O)cs2)cc1C(F)(F)F [Compound 29, N-(4-(acetamidomethyl)thiazol-2-yl)-N-(4-(pentyloxy)-3-(trifluoromethyl)phenyl)acetamide] | 5.00 to 6.00
CCCCCCCCc1ccc(N(C(=O)CC(C)(C)c2c(C)cc(C)cc2OP(=O)(O)O)c2nc(-c3cccnc3)c(F)s2)cc1C(F)(F)F [Compound 182, 2-(4-((5-fluoro-4-(pyridin-3-yl)thiazol-2-yl)(4-octyl-3-(trifluoromethyl)phenyl)amino)-2-methyl-4-oxobutan-2-yl)-3,5-dimethylphenyl dihydrogen phosphate] | 5.00 to 6.00
CCCCCOc1ccc(N(C(N)=O)c2nc(-c3ccc(F)cc3)cs2)cc1F [Compound 111, 1-(3-fluoro-4-(pentyloxy)phenyl)-1-(4-(4-fluorophenyl)thiazol-2-yl)urea] | > 6.00
CCCCCCCCOc1ccc(N(C(=O)COC(C)=O)c2nc(-c3cccnc3)cs2)cc1C(F)(F)F [Compound 158, 2-((4-(octyloxy)-3-(trifluoromethyl)phenyl)(4-(pyridin-3-yl)thiazol-2-yl)amino)-2-oxoethyl acetate] | > 6.00
CCCCCCCCOc1ccc(N(C(=O)COC(C)=O)c2nc(-c3ccc(F)cc3)cs2)cc1 [Compound 60, 2-((4-(4-fluorophenyl)thiazol-2-yl)(4-(octyloxy)phenyl)amino)-2-oxoethyl acetate] | > 6.00
COc1ccc(N(C(N)=O)c2nc(-c3ccc(F)cc3)cs2)cc1C(F)(F)F [Compound 85, 1-(4-(4-fluorophenyl)thiazol-2-yl)-1-(4-methoxy-3-(trifluoromethyl)phenyl)urea] | > 6.00
CCCCOc1ccc(N(C(N)=O)c2nc(-c3cccnc3)cs2)cc1C(F)(F)F [Compound 136, 1-(4-butoxy-3-(trifluoromethyl)phenyl)-1-(4-(pyridin-3-yl)thiazol-2-yl)urea] | > 6.00
CCCCCOc1ccc(N(C(=O)C(=O)OC)c2nc(-c3ccc(F)cc3)cs2)cc1C(F)(F)F [Compound 38, methyl 2-((4-(4-fluorophenyl)thiazol-2-yl)(4-(pentyloxy)-3-(trifluoromethyl)phenyl)amino)-2-oxoacetate] | > 6.00
CCCCCCc1ccc(N(C(N)=O)c2nc(-c3cccnc3)c(F)s2)cc1C(F)(F)F [Compound 155, 1-(5-fluoro-4-(pyridin-3-yl)thiazol-2-yl)-1-(4-hexyl-3-(trifluoromethyl)phenyl)urea] | > 6.00
CCCCCOc1ccc(N(C)c2nc(C(=O)O)cs2)cc1C(F)(F)F [Compound 3, 2-(methyl(4-(pentyloxy)-3-(trifluoromethyl)phenyl)amino)thiazole-4-carboxylic acid] | < 5.00
CC(C)COc1ccc(N(C(N)=O)c2nc(-c3ccc(F)cc3)cs2)cc1C(F)(F)F [Compound 125, 1-(4-(4-fluorophenyl)thiazol-2-yl)-1-(4-isobutoxy-3-(trifluoromethyl)phenyl)urea] | > 6.00
CCCCCOc1ccc(N(C(=O)COC(C)=O)c2nc(-c3ccc(F)c(F)c3)cs2)cc1C(F)(F)F [Compound 54, 2-((4-(3,4-difluorophenyl)thiazol-2-yl)(4-(pentyloxy)-3-(trifluoromethyl)phenyl)amino)-2-oxoethyl acetate] | > 6.00
CCCCCN(C)c1ccc(N(C(=O)c2cc(C)on2)c2nc(-c3cccnc3)cs2)cc1C(F)(F)F [Compound 52, 5-methyl-N-(4-(methyl(pentyl)amino)-3-(trifluoromethyl)phenyl)-N-(4-(pyridin-3-yl)thiazol-2-yl)isoxazole-3-carboxamide] | > 6.00
NC(=O)c1cc(-c2csc(N(C(N)=O)c3ccc(OCC4CCCCC4)c(F)c3)n2)ccc1O [Compound 115, 5-(2-(1-(4-(cyclohexylmethoxy)-3-fluorophenyl)ureido)thiazol-4-yl)-2-hydroxybenzamide] | 5.00 to 6.00
CCCCCCCCOc1ccc(N(C(=O)CCC(=O)O)c2nc(-c3cccnc3)cs2)cc1C(F)(F)F [Compound 161, 4-((4-(octyloxy)-3-(trifluoromethyl)phenyl)(4-(pyridin-3-yl)thiazol-2-yl)amino)-4-oxobutanoic acid] | > 6.00
CCCCCCCCOc1ccc(N(C(N)=O)c2nc(-c3cccnc3)cs2)cc1 [Compound 72, 1-(4-(octyloxy)phenyl)-1-(4-(pyridin-3-yl)thiazol-2-yl)urea] | > 6.00
CCCCCCCCOc1ccc(N(C(N)=O)c2nc(-c3ccncc3)cs2)cc1 [Compound 80, 1-(4-(octyloxy)phenyl)-1-(4-(pyridin-4-yl)thiazol-2-yl)urea] | < 5.00
CCCCCCCCOc1ccc(N(C(=O)NCC)c2nc(-c3cccnc3)cs2)cc1 [Compound 73, 3-ethyl-1-(4-(octyloxy)phenyl)-1-(4-(pyridin-3-yl)thiazol-2-yl)urea] | < 5.00
